From paper PMC11239830, “Synthetic macrolides overcoming MLSBK-resistant pathogens” (Cell Discovery, 2024)
≈ marks a conversion by molar mass, not a printed value. Where two headings read alike, the source gives them in different places. Values belong to the compound of their own block, whether it stands above or below them.

How the values were obtained:
S. pneumoniae = assay: MIC, broth microdilution; type: cell-based, Streptococcus pneumoniae
Description: (§1) MICs were determined by the microdilution method according to the Clinical and Laboratory Standards Institute guidelines. […] Finally, the 96-well plates were incubated at 37 °C for 16–20 h to observe and record the results. […] The assay for MICs was replicated at least three times.

S. pyogenes = assay: MIC, broth microdilution; type: cell-based, Streptococcus pyogenes
Description: as §1

H. influenzae = assay: MIC, broth microdilution; type: cell-based, Haemophilus influenzae
Description: as §1

M. catarrhalis = assay: MIC, broth microdilution; type: cell-based, Moraxella catarrhalis; conditions: M. catarrhalis 13L332, Ery-S
Description: MICs were determined by the microdilution method according to the Clinical and Laboratory Standards Institute guidelines. Briefly, the stock solution of compounds and the reference antibiotics were diluted 2-fold in sterile 96-well plates with cation-adjusted Mueller-Hinton broth, and mixed with CAMHB-containing bacteria to give a final inoculum of 5 × 10^5 CFU/mL for broth microdilution experiments. […] Finally, the 96-well plates were incubated at 37 °C for 16–20 h to observe and record the results. The lowest concentration at which no bacterial growth could be observed visually was identified as the MICs of the compounds. The assay for MICs was replicated at least three times.

S. aureus = assay: MICs and MBCs against selected S. aureus isolates; type: cell-based, Staphylococcus aureus
[1] = S. pneumoniae 05O173, c-ermB, mef
[2] = Streptococcus pneumoniae, ATCC49619, S. pneumoniae ATCC49619, Ery-S, read-out: MIC
[3] = Streptococcus pneumoniae, S. pneumoniae 05O173, c-ermB, mef, read-out: MIC
[4] = Streptococcus pneumoniae, S. pneumoniae 07P390, c-ermB, read-out: MIC
[5] = Streptococcus pyogenes, S. pyogenes 12-206, c-ermTR, read-out: MIC
[6] = Haemophilus influenzae, ATCC49247, H. influenzae ATCC49247, Azi-S, read-out: MIC
[7] = Moraxella catarrhalis, read-out: MIC
[8] = Staphylococcus aureus, MRSA, strain 1, MRSA, i-ermA
[9] = Staphylococcus aureus, MRSA, strain 4, MRSA, i-ermA
[10] = Staphylococcus aureus, MRSA, strain 5, MRSA, i-ermC
[11] = Staphylococcus aureus, MRSA, strain 6, MRSA, c-ermB
[12] = Staphylococcus aureus, MRSA, strain 7, MRSA, c-ermB
[13] = Staphylococcus aureus, MRSA, strain 10, MRSA, c-ermB
[14] = Staphylococcus aureus, MRSA, strain 11, MRSA, c-ermB

MIC (S. pneumoniae; [2]): ≤ 0.008 µg/mL
MIC (S. pneumoniae; [3]): 8 µg/mL (≈ 8.14 µM)
MIC (S. pneumoniae; [4]): 0.25 µg/mL (≈ 0.254 µM)
MIC (S. pyogenes; [5]): 0.5 µg/mL (≈ 0.509 µM)
MIC (H. influenzae; [6]): 2 µg/mL (≈ 2.03 µM)
MIC (M. catarrhalis; [7]): 0.5 µg/mL (≈ 0.509 µM)
Compound: CC[C@H]1OC(=O)[C@H](C)[C@@H](OC(=O)NCCCCOCCC#Cc2ccc3c(=O)c(C(=O)O)cn(C)c3c2)[C@H](C)[C@@H](O[C@@H]2O[C@H](C)C[C@H](N(C)C)[C@H]2O)[C@](C)(OC)C[C@@H](C)C(=O)[C@H](C)[C@H]2NC(=O)O[C@@]21C [96g]

MIC (S. pneumoniae; [2]): 0.25 µg/mL (≈ 0.265 µM)
MIC (S. pneumoniae; [3]): 128 µg/mL (≈ 136 µM)
MIC (S. pneumoniae; [4]): 4 µg/mL (≈ 4.24 µM)
MIC (S. pyogenes; [5]): 4 µg/mL (≈ 4.24 µM)
MIC (H. influenzae; [6]): 8 µg/mL (≈ 8.48 µM)
MIC (M. catarrhalis; [7]): 0.5 µg/mL (≈ 0.53 µM)
Compound: CC[C@H]1OC(=O)[C@H](C)[C@@H](OC(=O)NCCCCCCC#Cc2ccc3c(=O)c(C(=O)O)cn(C)c3c2)[C@H](C)[C@@H](O[C@@H]2O[C@H](C)C[C@H](N(C)C)[C@H]2O)[C@](C)(O)C[C@@H](C)CN(C)[C@H](C)[C@@H](O)[C@]1(C)O [106g]

MIC (S. pneumoniae; [1]): 128 µg/mL (≈ 135 µM)
MIC (S. pneumoniae; S. pneumoniae 07P390, c-ermB): 4 µg/mL (≈ 4.22 µM)
MIC (S. pneumoniae; S. pneumoniae ATCC49619, Ery-S): 0.25 µg/mL (≈ 0.264 µM)
MIC (S. pyogenes; S. pyogenes 12-206, c-ermTR): 8 µg/mL (≈ 8.45 µM)
MIC (H. influenzae; H. influenzae ATCC49247, Azi-S): 8 µg/mL (≈ 8.45 µM)
MIC (M. catarrhalis): 1 µg/mL (≈ 1.06 µM)
Compound: CC[C@H]1OC(=O)[C@H](C)[C@@H](OC(=O)NCCCCCCCCc2ccc3c(=O)c(C(=O)O)cn(C)c3c2)[C@H](C)[C@@H](O[C@@H]2O[C@H](C)C[C@H](N(C)C)[C@H]2O)[C@](C)(O)C[C@@H](C)CN(C)[C@H](C)[C@@H](O)[C@]1(C)O [107g]

More lines, now with the values behind:

Compound: CC[C@H]1OC(=O)[C@H](C)[C@@H](OC(=O)NCCCCCCCCc2ccc3c(=O)c(C(=O)O)cn(C)c3c2)[C@H](C)[C@@H](O[C@@H]2O[C@H](C)C[C@H](N(C)C)[C@H]2O)[C@](C)(OC)C[C@@H](C)C(=O)[C@H](C)[C@H]2NC(=O)O[C@@]21C [90g]
MIC (S. pneumoniae; [1]): 8 µg/mL (≈ 8.24 µM)
MIC (S. pneumoniae; S. pneumoniae 07P390, c-ermB): 0.03 µg/mL (≈ 0.0309 µM)
MIC (S. pneumoniae; S. pneumoniae ATCC49619, Ery-S): ≤ 0.008 µg/mL
MIC (S. pyogenes; S. pyogenes 12-206, c-ermTR): 0.12 µg/mL (≈ 0.124 µM)
MIC (H. influenzae; H. influenzae ATCC49247, Azi-S): 4 µg/mL (≈ 4.12 µM)
MIC (M. catarrhalis): 2 µg/mL (≈ 2.06 µM)

Compound: CC[C@H]1OC(=O)[C@H](C)[C@@H](OC(=O)NCCCOCCC#Cc2ccc3c(=O)c(C(=O)O)cn(C4CC4)c3c2)[C@H](C)[C@@H](O[C@@H]2O[C@H](C)C[C@H](N(C)C)[C@H]2O)[C@](C)(OC)C[C@@H](C)C(=O)[C@H](C)[C@H]2NC(=O)O[C@@]21C [95c]
MIC (S. pneumoniae; [2]): 0.03 µg/mL (≈ 0.0301 µM)
MIC (S. pneumoniae; [3]): 4 µg/mL (≈ 4.02 µM)
MIC (S. pneumoniae; [4]): 0.25 µg/mL (≈ 0.251 µM)
MIC (S. pyogenes; [5]): 0.5 µg/mL (≈ 0.502 µM)
MIC (H. influenzae; [6]): 2 µg/mL (≈ 2.01 µM)
MIC (M. catarrhalis; [7]): 0.5 µg/mL (≈ 0.502 µM)

Compound: CC[C@H]1OC(=O)[C@H](C)[C@@H](OC(=O)NCCCOCCC#Cc2ccc3c(=O)c(C(=O)O)cn(CC)c3c2)[C@H](C)[C@@H](O[C@@H]2O[C@H](C)C[C@H](N(C)C)[C@H]2O)[C@](C)(OC)C[C@@H](C)C(=O)[C@H](C)[C@H]2NC(=O)O[C@@]21C [95f]
MIC (S. pneumoniae; [2]): ≤ 0.008 µg/mL
MIC (S. pneumoniae; [3]): 4 µg/mL (≈ 4.07 µM)
MIC (S. pneumoniae; [4]): 0.12 µg/mL (≈ 0.122 µM)
MIC (S. pyogenes; [5]): 0.5 µg/mL (≈ 0.509 µM)
MIC (M. catarrhalis; [7]): 0.5 µg/mL (≈ 0.509 µM)

Compound: CC[C@H]1OC(=O)[C@@](C)(F)C(=O)[C@H](C)[C@@H](O[C@@H]2O[C@H](C)C[C@H](N(C)C)[C@H]2O)[C@](C)(OC)C[C@@H](C)C(=O)[C@H](C)[C@H]2N(CCCCn3cc(-c4cccc(N)c4)nn3)C(=O)O[C@]12C [solithromycin]
MIC (S. pneumoniae; [2]): 0.016 µg/mL (≈ 0.0189 µM)
MIC (S. pneumoniae; [4]): 0.03 µg/mL (≈ 0.0355 µM)
MIC (S. pneumoniae; Streptococcus pneumoniae, S. pneumoniae PU09, mef, read-out: MIC): 0.5 µg/mL (≈ 0.592 µM)
MIC (S. pyogenes; Streptococcus pyogenes, S. pyogenes 01-968, i-ermTR (Table S5), read-out: MIC): 0.016 µg/mL (≈ 0.0189 µM)
MIC (S. pyogenes; Streptococcus pyogenes, S. pyogenes 12-206, c-ermB (Table S5), read-out: MIC): 0.03 µg/mL (≈ 0.0355 µM)
MIC (H. influenzae; [6]): 2 µg/mL (≈ 2.37 µM)
MBC/MIC (S. aureus; S. aureus ATCC29213): > 8
MIC (S. aureus; Staphylococcus aureus, ATCC29213, S. aureus ATCC29213 (Table S10), read-out: MIC): 0.06 µg/mL (≈ 0.071 µM)
MBC (S. aureus; [8]): > 0.5 µg/mL
MIC (S. aureus; [8]): 0.06 µg/mL (≈ 0.071 µM)
MBC (S. aureus; [9]): > 0.5 µg/mL
MIC (S. aureus; [9]): 0.06 µg/mL (≈ 0.071 µM)
MBC (S. aureus; [10]): 0.5 µg/mL (≈ 0.592 µM)
MIC (S. aureus; [10]): 0.06 µg/mL (≈ 0.071 µM)
MBC (S. aureus; [11]): > 2 µg/mL
MIC (S. aureus; [11]): 0.25 µg/mL (≈ 0.296 µM)
MBC (S. aureus; [12]): > 4 µg/mL
MIC (S. aureus; [12]): 0.5 µg/mL (≈ 0.592 µM)
MBC (S. aureus; [13]): > 2 µg/mL
MIC (S. aureus; [13]): 0.25 µg/mL (≈ 0.296 µM)
MBC (S. aureus; [14]): > 2 µg/mL
MIC (S. aureus; [14]): 0.25 µg/mL (≈ 0.296 µM)
MIC (S. aureus; Staphylococcus aureus, MSSA, strain 2, MSSA, i-ermC, read-out: MIC): 0.06 µg/mL (≈ 0.071 µM)
MIC (S. aureus; Staphylococcus aureus, MSSA, strain 3, MSSA, i-ermC, read-out: MIC): 0.06 µg/mL (≈ 0.071 µM)
MBC (S. aureus; Staphylococcus aureus, MSSA, strain 8, MSSA, c-ermB): 128 µg/mL (≈ 151 µM)
MIC (S. aureus; Staphylococcus aureus, MSSA, strain 8, MSSA, c-ermB, read-out: MIC): 16 µg/mL (≈ 18.9 µM)
MBC (S. aureus; Staphylococcus aureus, MSSA, strain 9, MSSA, c-ermB): > 256 µg/mL
MIC (S. aureus; Staphylococcus aureus, MSSA, strain 9, MSSA, c-ermB, read-out: MIC): 32 µg/mL (≈ 37.9 µM)
MBC (S. aureus; Staphylococcus aureus, S. aureus ATCC29213, read-out: MBC): > 0.5 µg/mL
MBC (S. aureus; Staphylococcus aureus, strain 3, MSSA, i-ermC, read-out: MBC): > 0.5 µg/mL
bactericidal or bacteriostatic by MBC/MIC (S. aureus; selected S. aureus isolates): bacteriostatic against all selected isolates
MBC/MIC (S. aureus; strain 1, MRSA, i-ermA): > 8
MBC (S. aureus; strain 2, MSSA, i-ermC): > 0.5 µg/mL
MBC/MIC (S. aureus; strain 2, MSSA, i-ermC): > 8
MBC/MIC (S. aureus; strain 3, MSSA, i-ermC): > 8
MBC/MIC (S. aureus; strain 4, MRSA, i-ermA): > 8
MBC/MIC (S. aureus; strain 5, MRSA, i-ermC): 8
MBC/MIC (S. aureus; strain 6, MRSA, c-ermB): > 8
MBC/MIC (S. aureus; strain 7, MRSA, c-ermB): > 8
MBC/MIC (S. aureus; strain 8, MSSA, c-ermB): 8
MBC/MIC (S. aureus; strain 9, MSSA, c-ermB): > 8
MBC/MIC (S. aureus; strain 10, MRSA, c-ermB): > 8
MBC/MIC (S. aureus; strain 11, MRSA, c-ermB): > 8
